Data on two molecules can be found in ChEMBL document CHEMBL1133228, “Synthesis and PTP1B inhibition of novel 4-aryl-1-oxa-9-thiacyclopenta[b]fluorenes” (Bioorg Med Chem Lett, 2000).

For test [1], the system named is Mus musculus. Description: Reduction in insulin-induced protein tyrosine phosphorylation in liver of ob/ob mice at 10 mg/kg perorally. The class given is functional. Conditions: route oral.
Test [2] deals with T1, Tyrosine-protein phosphatase non-receptor type 1 (Homo sapiens, UniProt P18031).
T1 sequence (P18031 whole entry): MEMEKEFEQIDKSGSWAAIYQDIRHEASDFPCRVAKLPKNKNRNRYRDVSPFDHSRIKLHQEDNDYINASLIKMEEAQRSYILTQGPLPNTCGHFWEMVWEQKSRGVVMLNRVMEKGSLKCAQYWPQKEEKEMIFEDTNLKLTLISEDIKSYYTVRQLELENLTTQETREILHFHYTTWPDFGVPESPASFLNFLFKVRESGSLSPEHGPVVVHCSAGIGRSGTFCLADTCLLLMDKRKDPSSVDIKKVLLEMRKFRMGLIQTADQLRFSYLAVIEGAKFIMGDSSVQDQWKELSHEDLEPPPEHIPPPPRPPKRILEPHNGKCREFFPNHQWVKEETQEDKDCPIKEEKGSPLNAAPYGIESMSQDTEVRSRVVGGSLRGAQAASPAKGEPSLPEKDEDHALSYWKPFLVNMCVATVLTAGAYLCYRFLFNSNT
Description: Compound was evaluated for the inhibitory activity against recombinant Protein-tyrosine phosphatase 1B using, phosphotyrosyl dodecapeptide [TRDI(P)YETD(P)Y(P)YRK] as substrate.

Test [3] has as its system Mus musculus. Description: Reduction in insulin-induced protein tyrosine phosphorylation in liver of ob/ob mice at 25 mg/kg perorally. The class given is functional. The following applies: route oral.

For `Cc1oc2cc3sc4ccccc4c3c(-c3cc(I)c(O[C@H](Cc4ccccc4)C(=O)O)c(I)c3)c2c1C`, the Insulin lowering effect in test [1] is 43%.
Broadly, the IC50 is the concentration needed to halve the response being measured. As for `O=C(O)[C@@H](Cc1ccccc1)Oc1c(I)cc(-c2c3ccccc3cc3sc4ccccc4c23)cc1I`, the IC50 in test [2] turned out to be 179 nM. The Insulin lowering effect in test [3] amounted to 68%.
